# Source: patent US20100273868A1, “R-Zileuton for Use in Conditions Associated with Increased 5-Lipoxygenase and/or Leukotriene Activity (EG Asthma)” (Cornerstone Therapeutics Inc., priority 2007, published 2010)
# Assays:
# [1] = test system: infiltration of inflammatory cells to the airways; experiment: Mouse model of asthma, ovalbumin challenge, BAL 8 h after final challenge (Example 5); format: in vivo, BALB/c mice; settings: for inhibition of eosinophils in BAL fluid / inhibition of neutrophil infiltration in BAL fluid / inhibition of the increase in total cellularity of BAL fluid: 4 mg/kg; for efficacy compared with racemic zileuton or S(−) zileuton: 2 or 4 mg/kg oral once a day
# Description: Male BALB/c mice were obtained from Taconic Labs (Taconic, N.Y.) and maintained on an OVA-free (ovalbumin-free) diet. After equilibration of at least 5 days, animals were sensitized to OVA and then challenged by the following procedure. On days 1 and 14, sensitization was performed by intraperitoneal (ip) injections of 10 μg OVA emulsified in 2 mg Al(OH)3 (aluminum hydroxide (Aldrox)) in a volume of […]. On days 29, 30 and 31, allergen challenge was performed via intranasal instillation of 20 μL (10 μL/nare) of OVA (1 mg/mL) under light isoflurane anesthesia.
# The background control group received no sensitization and no challenge. The sham control group underwent the OVA sensitization procedure, but was challenged with PBS. The vehicle control group was used to determine the maximal response level achievable.
# Animals were given Zileuton (at 2 or 4 mg/kg, by mouth (po), once daily (qd)) or (orally) 30 minutes prior to each ovalbumin challenge. Eight hours after the final ovalbumin challenge, animals were sacrificed and bronchoalveolar lavage (BAL) was performed. A tracheal tube was inserted into the trachea and the lungs were lavaged 2 times with pyrogen-free, sterile, PBS containing 0.01% EDTA and 0.05% BSA (Bovine serum albumin). Lavage fluid, maintained at room temperature, was slowly injected into the lungs; lungs were manually massaged to distribute fluid for 30 seconds, bronchoalveolar lavage fluid (BALF) was slowly withdrawn and salvaged to individually-labeled, sterile, polypropylene tubes. The procedure was repeated 2 times/animal and the lavage fluids were pooled. The magnitude of the infiltration of inflammatory cells to the airways was determined by flow cytometry.
# [2] = Plasma concentration-time profile (AUC) after oral dosing to dogs; format: in vivo, beagle dogs; settings: for AUC: beagle, dog, plasma, gelcaps
# Description: The plasma concentration-time profiles for racemic zileuton and (R)-zileuton were evaluated in beagle dogs dosed orally with either 10 mg/kg racemic zileuton or 5 mg/kg (R)-zileuton in gelcaps. Following oral dosing blood samples were collected from the test animals into sodium-EDTA anticoagulant tubes at selected time points up to 48 hours post-dose, processed into plasma and analysed by an LC-MS/MS method for zileuton concentration. The LC-MS/MS method utilized a 0.1% trifluoroacetic in water and methanol gradient HPLC system (initial 45:55 to 10:90% over 4 minutes with a Zorbax SB-C18 4.6×30 mm column at a flow rate of 1.5 mL/min). The retention time of zileuton was 2.0 minutes. A stable labeled version of zileuton was used to internally standardize the analysis. Mass spectrometer analysis by electrospray ionization of the HPLC eluent was performed in SRM mode (ESI 3.5 kV; tube lens voltage 71.0; capillary offset 40.3; L11-24.3; capillary temperature 350° C.; dwell 100 msec; collision energy 15 eV). Plasma concentrations of zileuton in the test samples were estimated by interpolation of sample peak area/height data from a standard concentration-peak area/height plot. The area under the plasma concentration-time (AUC) was calculated by non-compartmental pharmacokinetic analysis (WinNonlin, Pharsight, Mountain View, Calif.) using the trapezoidal rule.
# [3] = test system: LTB4 production in canine whole blood; experiment: Ex vivo inhibition of A23187-stimulated LTB4 production in canine whole blood after oral dosing; settings: Canis lupus familiaris, dogs; for inhibition at 10 mg/kg: 10 mg/kg oral; for inhibition at 5 mg/kg: 5 mg/kg oral
# Description: To determine the pharmacodynamics of racemic and (R)-zileuton, ex vivo, in fresh canine whole blood, a 0.5 ml aliquot was removed from each pharmacokinetic sample of the study. Each 0.5 ml aliquot of blood was placed into an individually-labeled, 1.5 ml polypropylene tube. Five (5) μl of a 5 mM calcium ionophore A23187 solution (in DMSO) was added to each sample and mixed for 10 seconds on a vortex. Final concentration of A23187 in whole blood was 50 μM (final DMSO concentration was 1%). After mixing, each sample was placed into a 37° C. circulating water bath and allowed to incubate for 30 minutes. […] After incubation, each sample was removed from the water bath and immediately placed onto wet ice for 2 minutes. The samples were removed from the ice after 2 minutes and immediately centrifuged in an Eppendorf Microfuge (VWR Scientific, USA) at 14,000 rpm for 2 minutes at ambient room temperature. After centrifugation, the supernatant (plasma) was collected, diluted into EIA buffer (1M phosphate buffer, pH 7.4) then stored at −80° C. until assay. The level of LTB4 was analyzed by enzyme immunoassay (Cayman Chemical Co., Ann Arbor, Mich.).
# [4] = test system: cellular infiltration of airways; experiment: Murine model of allergic lung inflammation, ovalbumin challenge, BAL 24 h after final challenge (Example 4); format: in vivo, BALB/c mice; settings: oral
# Description: Male, BALB/c mice were sensitized intraperitoneally (i.p.) with ovalbumin (10 μg) on days 1 and 14. To provoke an allergic lung inflammatory response, the mice received three intransal (i.n.) challenges with ovalbumin (100 μg) (or saline for sham) on days 29, 30 and 31. After sensitization period, animals were treated orally 30 minutes prior to ovalbumin challenge on days 29, 30 and 31 according to the following regimes: racemic Zileuton (10 mg/kg, four times daily (qid)), Montelukast (0.17 mg/kg, once daily (qd)), Dexamethasone (4 mg/kg, once daily (qd)). Twenty-four hours following the final challenge (n=16 per group, pool of two separate studies), animals were sacrificed and bronchoalveolar lavage (BAL) was performed. Infiltration of airways by inflammatory cells was quantified by cytospin, microscopy and/or flow cytometry. The dose levels and frequencies of zileuton and montelukast were chosen to approximate the human clinical use. Zileuton, Montelukast and Dexamethasone were compared to their respective “qid” and “qd” controls.
# [5] = test system: LTB4 production in human whole blood; experiment: Human whole blood assay of LTB4 inhibition; format: cell-based; settings: for IC50: A23187 50 μM
# Description: The potency of racemic and (R)-zileuton was assessed in fresh human whole blood essentially by the methods of Carter et al., J. Pharm. Exp. Ther. 1991: 256:929. Briefly, 0.5.ml of heparinized (20 USP U/ml) human blood from each donor was incubated with vehicle (DMSO), or various concentrations of racemic zileuton, (R)-zileuton or (S)-zileuton (prepared in DMSO) for fifteen minutes at 37° C. Eicosanoid biosynthesis was initiated by the addition of calcium ionophore A23187 in DMSO to a final concentration of 50 μM (final DMSO concentration of 1%). Samples were incubated for an additional 30 minutes at 37° C. in the presence of A23187. The reaction was terminated by cooling in an ice bath for 2 minutes followed by centrifugation. The plasma was then salvaged to an EIA buffer (1M phosphate buffer, pH 7.4) then stored at −80° C. until assay. The level of LTB4 was analyzed by enzyme immunoassay.
structure (smiles),measurement,setting,value
"CC(c1cc2ccccc2s1)N(O)C(N)=O (racemic) [racemic zileuton, (±)-1-(1-Benzo[b]thien-2-ylethyl)-1-hydroxyurea]",inhibition of eosinophils in BAL fluid,"[1]; po, qd, versus vehicle control",67%
same,inhibition of neutrophil infiltration in BAL fluid,"[1]; po, qd, versus vehicle control",54%
same,inhibition of the increase in total cellularity of BAL fluid,"[1]; po, qd, versus vehicle control",66%
same,AUC,[2]; 10 mg/kg po,87000 ng·h/mL
same,inhibition at 10 mg/kg,[3]; 36 hours after administration,~84%
same,inhibition at 10 mg/kg,[3]; time points between 30 minutes and 24 hours after administration,100%
same,% Inhibition Eosinophils,"[4]; 10 mg/kg, qid",99.2 ± 0.02%
same,% Inhibition Neutrophils,"[4]; 10 mg/kg, qid",87.9 ± 2.3%
same,% Inhibition Total cells,"[4]; 10 mg/kg, qid",62.2 ± 1.7%
same,IC50,[5],745 nM
C[C@H](c1cc2ccccc2s1)N(O)C(N)=O [(R)-zileuton],inhibition of the total cell infiltration,"[1]; 2 mg/kg, po, qd, versus vehicle control",66%
same,inhibition of eosinophils in BAL fluid,"[1]; po, qd, versus vehicle control",75%
same,inhibition of neutrophil infiltration in BAL fluid,"[1]; po, qd, versus vehicle control",65%
same,inhibition of the increase in total cellularity of BAL fluid,"[1]; po, qd, versus vehicle control",85%
same,efficacy compared with racemic zileuton or S(−) zileuton,[1],significantly greater efficacy than racemic zileuton
same,efficacy compared with racemic zileuton or S(−) zileuton,[1]; listed as R(+) zileuton,greater efficacy
same,share of the racemic zileuton AUC,[2]; FIG. 1,58%
same,AUC,[2]; 5 mg/kg po,52000 ng·h/mL
same,inhibition at 5 mg/kg,[3]; 36 hours after administration,~74%
same,inhibition at 5 mg/kg,[3]; time points between 60 minutes and 24 hours after administration,> 91%
same,S(−) zileuton IC50/R(+) zileuton IC50 ratio,[5],11.9
same,IC50,[5],399 nM
C[C@@H](c1cc2ccccc2s1)N(O)C(N)=O [(S)-zileuton],inhibition of eosinophils in BAL fluid,"[1]; po, qd, versus vehicle control",51%
same,inhibition of neutrophil infiltration in BAL fluid,"[1]; po, qd, versus vehicle control",35%
same,inhibition of the increase in total cellularity of BAL fluid,"[1]; po, qd, versus vehicle control",not significantly effective
same,IC50,[5],4770 nM
C[C@@H]1C[C@H]2[C@@H]3CCC4=CC(=O)C=C[C@]4(C)[C@@]3(F)[C@@H](O)C[C@]2(C)[C@@]1(O)C(=O)CO [Dexamethasone],% Inhibition Eosinophils,"[4]; 4 mg/kg, qd",99.2 ± 0.02%
same,% Inhibition Neutrophils,"[4]; 4 mg/kg, qd",90.5 ± 1.1%
same,% Inhibition Total cells,"[4]; 4 mg/kg, qd",62.5 ± 1.5%
CC(C)(O)c1ccccc1CC[C@@H](SCC1(CC(=O)O)CC1)c1cccc(/C=C/c2ccc3ccc(Cl)cc3n2)c1 [Montelukast],% Inhibition Eosinophils,"[4]; 0.17 mg/kg, qd",99.2 ± 0.02%
same,% Inhibition Neutrophils,"[4]; 0.17 mg/kg, qd",23.3 ± 6.6%
same,% Inhibition Total cells,"[4]; 0.17 mg/kg, qd",53.3 ± 6.5%
